Data published in patent US20250276036A1, “COMPOSITION FOR THE INHIBITION OF NRF2 AND USES THEREOF IN CANCER THERAPY” (Sunshine Biopharma Inc., priority 2022, published 2025).

Experiments:
[1] = tested on: MCF7 human breast adenocarcinoma cell line; experiment: Cell viability (CellTiter-Glo) after mRNA transfection, MCF7; format: cell-based
Description: (§1) The goal of these experiments is to evaluate the transfectability of various cell lines, as well as evaluate the role of KEAP1 as a tumor cells sensitizer, evaluate its role in decreasing the viability of tumor cells. The synthetic mRNA produced in Example 1, or the cLUC mRNA are transfected in cancer cells using the Lipofectamine MessengerMAX™ Transfection Reagent, ThermoFisher™, Cat No: LMRNA001. 0, 0.3, 1, 3 or 9 ng of either mRNA is used per 1000 cells.
(§2) MCF7 and MCF7/MDR human breast adenocarcinoma cell lines are transfected for 48 hours with 0, 0.3, 1, 3 and 9 ng of KEAP1 mRNA, or with 0, 0.3, 1, 3 and 9 ng of a control Cypridina luciferase (cLUC) (SEQ ID NO: 10) mRNA. The cells viability was measured using the CellTiter-Glo® assay from Promega®. KEAP1 mRNA specific effects on MCF7 and MCF7/MDR cells survival were observed when cells were transfected with 0, 0.3, 1, 3 and 9 ng of KEAP1 mRNA.
(§3) MCF7 and MCF7/MDR human breast adenocarcinoma cell lines are transfected for 48 hours with 0, 1 and 3 ng of KEAP1 mRNA, or with 0, 1 and 3 ng of a control Cypridina luciferase (cLUC) mRNA, per 1000 cells. The cells viability was measured using the CellTiter-Glo® assay from Promega®. In-cell Western analysis is used to detect the presence of KEAP1.
(§4) Human Mammary Epithelial Cells (HMEC), which are non-cancer cells were compared to MCF7 cancer cells. The HMEC cells and MCF7 cancer cells were transfected for 48 hours with 0, 0.3, 1, 3 and 9 ng of KEAP1 mRNA, or a control cLUC mRNA, per 1000 cells and their respective survival were compared. The cells viability was measured using the CellTiter-Glo® assay from Promega®. […] Now referring to FIG. 4, cell viability of MCF7 cells was affected by KEAP1 mRNA, but the viability of the HMEC cells was unaffected by KEAP1 mRNA.

[2] = tested on: MCF7/MDR human breast adenocarcinoma cell line; experiment: Cell viability (CellTiter-Glo) after mRNA transfection, MCF7/MDR; format: cell-based; conditions: for % Cell survival: MCF7/MDR, 48 hours transfection (Example 3)
Description: as §1, §2, §3

[3] = tested on: Human Mammary Epithelial Cells (HMEC); experiment: Cell viability (CellTiter-Glo) after mRNA transfection, HMEC; format: cell-based; conditions: HMEC, 0, 3 and 9 ng mRNA per 1000 cells, 48 hours transfection
Description: (§5) The synthetic mRNA produced in Example 1 is transfected in cancer cells using the Lipofectamine MessengerMAX™ Transfection Reagent.
as §4

OVCAR3 epithelial cells = experiment: Cell viability (CellTiter-Glo) after mRNA transfection, OVCAR3; format: cell-based, human
Description: as §5
(§6) OVCAR3 epithelial cells isolated from malignant ascites of a patient with progressive adenocarcinoma of the ovary, and SUIT2 human pancreatic cancer cell lines are transfected for […] with 0, 0.3, 1, 3 and 9 ng of KEAP1 mRNA, or with 0, 0.3, 1, 3 and 9 ng of a control Cypridina luciferase (cLUC)(SEQ ID NO: 10) mRNA, per 1000 cells. The cells viability was measured using the CellTiter-Glo® assay from Promega®. In-cell Western analysis is used to detect the presence of KEAP1.

[4] = tested on: SUIT2 human pancreatic cancer cell line; experiment: Cell viability (CellTiter-Glo) after mRNA transfection, SUIT2; format: cell-based; conditions: SUIT2, 0, 3 and 9 ng mRNA per 1000 cells
Description: as §5, §6

cLUC mRNA: control Cypridina luciferase (cLUC) (SEQ ID NO: 10) mRNA
effect on cell survival / viability ([1]; MCF7, 0, 0.3, 1, 3 and 9 ng mRNA per 1000 cells, 48 hours (FIG. 2)): little effect on cell survival unless a large amount of 9 ng was transfected | % Cell survival ([1]; MCF7, 1 ng mRNA per 1000 cells, 48 hours transfection (Example 3)): 100% | % Cell survival ([1]; MCF7, 3 ng mRNA per 1000 cells, 48 hours transfection (Example 3)): 55% | % Cell survival ([1]; MCF7, 3 ng mRNA per 1000 cells, 48 hours transfection (Example 4, Table 2)): 100% | % Cell survival ([1]; MCF7, 9 ng mRNA per 1000 cells, 48 hours transfection (Example 4, Table 2)): 55% | effect on cell survival / viability ([2]; MCF7/MDR, 0, 0.3, 1, 3 and 9 ng mRNA per 1000 cells, 48 hours (FIG. 2)): little effect on cell survival unless a large amount of 9 ng was transfected | % Cell survival ([2]; 1 ng mRNA per 1000 cells): 100% | % Cell survival ([2]; 3 ng mRNA per 1000 cells): 55% | % Cell survival [3]: Resistant | % Cell survival (OVCAR3 epithelial cells; OVCAR3, 3 ng mRNA per 1000 cells): 90% | % Cell survival (OVCAR3 epithelial cells; OVCAR3, 9 ng mRNA per 1000 cells): 80% | % Cell survival [4]: Resistant
